Values of other authors as cited in patent US11053249B2, “Proteasome inhibiting β-lactam prodrugs useful for the treatment of cancer and neurodegenerative disorders” (Vita Api, priority 2016, dated 2021).

Settings: Hogan & Corey, 2005, 2007

SMILES: CC(C)C(O)[C@@]12NC(=O)[C@H](CCCl)[C@@H]1NC2=O (stereo partly drawn) [initial β-lactam]
- experimental infrared C═O stretching frequency: 1756 cm⁻¹
